Results on one compound are retold here after publication PMC11556746, “Anchorage of bacterial effector at plasma membrane via selective phosphatidic acid binding to modulate host cell signaling” (PLOS Pathogens, 2024).

Molecules are shown by their SMILES.

This test concerns the target T1, BepE-BID1 (Bartonella henselae, UniProt A0A0R4J6H0).
T1 construct: gene BH13420; first BID domain (BID1) of BepE, His-tagged, expressed in E. coli, Ni-NTA
The test can be described thus: metasurface plasmon resonance (SPR), immobilised protein. The test is classed as binding. As to conditions: lipid presented in liposomes (PC:POPA, 90% PC and 10% POPA); HBS-ET buffer. (Surface plasmon resonance follows binding to a sensor surface in real time, without labels.)

T1 sequence (A0A0R4J6H0 entry or part of it): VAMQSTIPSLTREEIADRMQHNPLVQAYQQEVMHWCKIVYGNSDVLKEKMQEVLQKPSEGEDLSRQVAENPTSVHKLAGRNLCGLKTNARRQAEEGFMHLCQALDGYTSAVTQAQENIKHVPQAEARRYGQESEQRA

In the case of `CCCCCCCC/C=C\CCCCCCCC(=O)O[C@H](COC(=O)CCCCCCCCCCCCCCC)COP(=O)(O)O` [POPA], the equilibrium dissociation constant (Kd) (commonly the concentration at which binding is half-saturated) is about 349 nM.
